The source of these data is patent US9340577B2, “HLA binding motifs and peptides and their uses” (priority 1992, dated 2016).

One may read the IC50 as the midpoint of a concentration-inhibition curve. Low readings indicate greater potency, high ones weaker potency.

Among the targets are A*6801 (Homo sapiens, UniProt P04439, A269V/D185E/E176V/E277Q/E87N/F33Y/G231S/I121M/I166T/I218V/L180W/L300P/L318F/N151K/P208A/P217A/Q86R/R169H/T345S); A*3301 (Homo sapiens, UniProt P04439, A270S/D185E/E176V/E277Q/E87N/F33T/G231S/H175R/I121M/I218V/I322F/K168Q/K210R/L300P/L318F/M331R/P217A/Q86R/Q94H/R138Q/T323A/T345S/T97I/V358M/Y195H); A31 (A*3101) (Homo sapiens, UniProt P04439, A270S/D185E/E176V/E277Q/F33T/G231S/G80R/H175R/I121M/I218V/I322F/K168Q/L300P/L318F/M331R/P217A/Q94H/R138Q/T323A/T345S/T97I/V358M); HLA-A3.2 (A*0301) (Homo sapiens, UniProt P04439); HLA-A11 (A*1101) (Homo sapiens, UniProt P04439, A114D/D185E/E176A/F33Y/L180Q/S129P/T187R).

Holding throughout (test): biochemical
Holding throughout (type): binding

No end group written: not given here. Some results are limits rather than exact numbers.

For ILYQSNPYPK [Peptide 9017.0198], the IC50 on A*6801 was 37 nM; against A*3301, 11000 nM; against A31 (A*3101), 549 nM; against HLA-A3.2 (A*0301), 8.8 nM; against HLA-A11 (A*1101) it was 14 nM.
On the same counts, the results for RLIERIRER [Peptide 9017.0124] are 983 nM, 1100 nM, 14 nM, 57 nM and 407 nM.
On the same counts, the results for KSFFSRTWCK [Peptide 88.0170] are 219 nM, 22 nM, 5.4 nM, 7.9 nM and 12 nM.
The corresponding values for EFTAFLDAFK [Peptide 88.0179] are 127 nM, 14 nM, 16500 nM, 5790 nM and 968 nM.
With KTTPVVHLK [Peptide 1589.37], the IC50 against A*6801 was 33 nM; on A*3301, over 20000 nM; at A31 (A*3101), 28 nM; against HLA-A3.2 (A*0301), 28 nM; against HLA-A11 (A*1101), 22 nM.
With TTTYSPALNK [Peptide 1556.41], the IC50 against A*6801 was 18 nM; on A*3301, over 20000 nM; on A31 (A*3101), over 20000 nM; against HLA-A3.2 (A*0301), 102 nM; against HLA-A11 (A*1101), 2.5 nM.
On to VTVKVGGQLR [Peptide 1516.06], for which the IC50 on A*6801 worked out at 96 nM; against A*3301, 12700 nM; against A31 (A*3101) it was 503 nM; against HLA-A3.2 (A*0301) it was 8930 nM; on HLA-A11 (A*1101), 199 nM.
KSFLKGTPKK [Peptide 88.0149]: the IC50 on A*6801 is over 20000 nM; at A*3301, over 20000 nM; against A31 (A*3101) it was 572 nM; at HLA-A3.2 (A*0301) it was 48 nM; on HLA-A11 (A*1101), 89 nM.
With SVICFVNSK [Peptide 1587.15], the IC50 on A*6801 was determined as 8.6 nM; on A*3301, 2850 nM; against A31 (A*3101), 1910 nM; against HLA-A3.2 (A*0301) it was 109 nM; against HLA-A11 (A*1101), 3.5 nM.
The corresponding values for LLYGAANTGK [Peptide 1587.12] are 76 nM, over 20000 nM, 6720 nM, 3.3 nM and 16 nM.
The corresponding values for QVVPALSVSK [Peptide 1589.13] are 12 nM, over 20000 nM, 8920 nM, 825 nM and 25 nM.
Consider STWHWTGCNK [Peptide 1589.28], for which the IC50 worked out at 32 nM against A*6801; 1900 nM against A*3301; 160 nM at A31 (A*3101); 72 nM on HLA-A3.2 (A*0301); 15 nM against HLA-A11 (A*1101).
The corresponding values for ATNKMFCQLAK [Peptide 1556.47] are 1620 nM, over 20000 nM, 160 nM, 29 nM and 7.3 nM.
The corresponding values for AVMCRHYKR [Peptide 1587.53] are 25 nM, 59 nM, 14 nM, 213 nM and 31 nM.
The corresponding values for VVPAYNISK [Peptide 88.0397] are 992 nM, over 20000 nM, over 20000 nM, 69 nM and 14 nM.
For ETLNASPYK [Peptide 1589.39], the IC50 against A*6801 was 28 nM; at A*3301, 4710 nM; against A31 (A*3101) it was over 20000 nM; against HLA-A3.2 (A*0301) it was 163 nM; on HLA-A11 (A*1101) it was 27 nM.
Regarding RLLKETELRK [Peptide 9012.0248], the IC50 is 12800 nM against A*6801; over 20000 nM against A*3301; 7010 nM against A31 (A*3101); 27 nM at HLA-A3.2 (A*0301); 52 nM against HLA-A11 (A*1101).
Take FLSALKLFLK [Peptide 1587.38]: the IC50 against A*6801 was found to be 1560 nM; on A*3301, 2590 nM; at A31 (A*3101), 984 nM; on HLA-A3.2 (A*0301), 715 nM; at HLA-A11 (A*1101) it was 165 nM.
On the same counts, the results for QQLLFIHFR [Peptide 9017.0111] are 17 nM, 41 nM, 2 nM, 1800 nM and 4.8 nM.
The corresponding values for HLFWYSWYK [Peptide 76.0168] are 3.4 nM, 39 nM, 28 nM, 6.4 nM and 5.3 nM.
The corresponding values for TTSAELPK [Peptide 1556.23] are 1400 nM, over 20000 nM, over 20000 nM, 19400 nM and 221 nM.
STVSVGTAK [Peptide 1589.09]: the IC50 was 9.9 nM against A*6801; 16000 nM against A*3301; 1760 nM at A31 (A*3101); 34 nM on HLA-A3.2 (A*0301); 6 nM at HLA-A11 (A*1101).
The corresponding values for MTDAGTWDK [Peptide 88.0400] are 28 nM, over 20000 nM, over 20000 nM, 1580 nM and 12 nM.
The corresponding values for YVMAGVGSPK [Peptide 9012.0253] are 18 nM, 219 nM, 5730 nM, 25 nM and 13 nM.
On the same counts, the results for LSALKLFLK [Peptide 1587.39] are 2210 nM, 1820 nM, 96 nM, 957 nM and 31 nM.
Consider HLFDYSWYK [Peptide 76.0165], for which the IC50 at A*6801 was determined as 2.1 nM; on A*3301, 61 nM; against A31 (A*3101), 36 nM; at HLA-A3.2 (A*0301) it was 4.1 nM; on HLA-A11 (A*1101), 0.99 nM.
Regarding GTFKCSAGK [Peptide 88.0373], the IC50 turned out to be 81 nM on A*6801; 18200 nM at A*3301; 617 nM against A31 (A*3101); 23 nM against HLA-A3.2 (A*0301); 14 nM at HLA-A11 (A*1101).
The corresponding values for ISYGRKKRR [Peptide 9017.0079] are 1360 nM, 1120 nM, 36 nM, 9280 nM and over 20000 nM.
On the same counts, the results for AIVVWTIAY [Peptide 9017.0115] are 7190 nM, 5230 nM, 3190 nM, 121 nM and 9.2 nM.
The corresponding values for ATMCRHYKR [Peptide 1587.08] are 60 nM, 42 nM, 10 nM, 90 nM and 28 nM.
As to MALESILRK [Peptide 9012.0214], the IC50 on A*6801 was 433 nM; against A*3301 it was 5480 nM; at A31 (A*3101), over 20000 nM; at HLA-A3.2 (A*0301) it was 216 nM; against HLA-A11 (A*1101) it was 13 nM.
The corresponding values for VIDSPAGQA [Peptide 78.0316] are 983 nM, 913 nM, 407 nM, 13000 nM and 9430 nM.
